Experimental data published in article PMC7586386, “Discovery of Covalent Inhibitors Targeting the Transcriptional Enhanced Associate Domain Central Pocket” (Journal of Medicinal Chemistry, 2020).
Like-named read-outs stand apart in the source and are kept apart here.

Experiments:
[1] = molecular target: T1, mTEAD4 Cys360Ala with YAP (Mus musculus, UniProt Q62296, C360A); experiment: FP-based competitive TEAD–YAP interaction assay (FITC-hYAP50–100); assay type: binding
T1 construct: N-terminal His6- and MBP-tagged mTEAD4^209–427 with Cys360Ala mutation; made in house; host or cells: E. coli BL21-CodonPlus (DE3)-RIPL
Description: (§1) All the TEAD–YAP binding experiments were performed in phosphate-buffered saline (PBS) (pH 7.5).
(§2) To serially diluted solution of the tested compounds in 5 μL of PBS, freshly prepared 5 μL of protein solution was added and incubated at room temperature for 10 min followed by addition of 5 μL of FAM-YAP^50–100 solution. The assay plate was shaken at room temperature for 1 h before measuring the FP (Ex/Em: 485/535 nm). Final protein and FAM concentrations are as follows (FAM/protein): hTEAD4 (nonacylated): 2 nM/5 nM, hTEAD4 (acylated): 3 nM/15 nM, mTEAD4_Cys360Ser: 10 nM/50 nM, and mTEAD4_Cys360Ala: 10 nM/50 nM.

[2] = molecular target: T2, mTEAD4 Cys360Ser with YAP (Mus musculus, UniProt Q62296, C360S); experiment: as above; assay type: binding
T2 construct: His (N); made in house
Description: as §1, §2

[3] = molecular target: T3, hTEAD4 (acylated) with YAP (Homo sapiens, UniProt Q15561); experiment: as above; assay type: binding
T3 construct: N-terminal His6-tagged hTEAD4^217–434 was subcloned; made in house; host or cells: Escherichia coli BL21-CodonPlus (DE3)-RIPL
Description: as §1, §2

hTEAD4 (nonacylated) [4] = molecular target: T4, hTEAD4 (nonacylated) (Homo sapiens, UniProt Q15561); experiment: Time-dependent inhibition, FP (central pocket binding) assay
T4 construct: N-terminal His6-tagged hTEAD4^217–434 was subcloned; made in house; host or cells: Escherichia coli BL21-CodonPlus (DE3)-RIPL
Description: To serially diluted solution of the tested compounds in 5 μL assay buffer [HEPES (25 mM) and NaCl (150 mM), pH 6.5 buffer], freshly prepared 5 μL of 0.15 μM protein solution was added and incubated at room temperature for 10 min followed by 5 μL of 30 nM FITC-palmitate solution, giving 15 μL final assay volume, 50 nM protein, and 10 nM tracer. The assay plate was shaken at room temperature for 1 h before measuring the FP (Ex/Em: 485/535 nm).
TDI of hTEAD4 (nonacylated) by compound 19 was monitored in FP (central pocket binding) and thiol conjugation assays at 5–7 different concentrations (0.15–40 μM) following 1, 2, 4, and 24 h incubation at 4 °C (mean ± SD; n = 2). By fitting the percent of inhibition versus preincubation time at different concentrations, kobs was calculated. Next, kobs was plotted against concentration and was further fitted to a nonlinear regression model to determine the kinetic parameters of covalent inhibition of hTEAD4, where plateau is showing kinact (min^–1) and t1/2 is Ki (μM).

hTEAD2 = molecular target: T5, hTEAD2 (Homo sapiens, UniProt Q15562); experiment: Thiol conjugation assay, TEAD homologues; assay type: binding; conditions: read-out: TEAD2 IC50
T5 construct: N-terminal His6-tagged hTEAD4^217–447 was subcloned; His6 (N); made in house; host or cells: E. coli (as described for N-His hTEAD4)
Description: (§3) To serially diluted solutions of the tested compounds in 5 μL of assay buffer [HEPES (25 mM) and NaCl (150 mM) pH 6.5], freshly prepared 5 μL of 0.45 μM protein solution was added and incubated at room temperature for 10 min, followed by addition of 5 μL of 0.45 μM CPM solution, giving a 15 μL final assay volume, 150 nM protein, and 150 nM CPM. The assay plate was shaken at room temperature for 1 h before measuring the fluorescence (Ex/Em: 380/470 nm). Compound 19 was used as an internal standard to determine 100% inhibition.

hTEAD3 = molecular target: T6, hTEAD3 (Homo sapiens, UniProt Q99594); experiment: Thiol conjugation assay, TEAD homologues; assay type: binding; conditions: read-out: TEAD3 IC50
T6 construct: N-terminal His6-tagged hTEAD4^216–434 was expressed; His6 (N); made in house
Description: as §3

Ala mutant of mTEAD4 = molecular target: T7, Ala mutant of mTEAD4 (Mus musculus, UniProt Q62296, C360A); experiment: Thiol conjugation assay with cysteine mutant; assay type: binding; conditions: 10 μM compound
T7 construct: N-terminal His6- and MBP-tagged mTEAD4^209–427 with Cys360Ala mutation; made in house; host or cells: E. coli BL21-CodonPlus (DE3)-RIPL
Description: as §3

Ser mutant of mTEAD4 = molecular target: T8, Ser mutant of mTEAD4 (Mus musculus, UniProt Q62296, C360S); experiment: Thiol conjugation assay with cysteine mutant; assay type: binding; conditions: 10 μM compound
T8 construct: His (N); made in house
Description: as §3

[5] = Assay media stability (HPLC); assay type: physicochemical
Description: The compounds were incubated in MES (25 mM), pH 6.5 buffer or HEPES (25 mM) and NaCl (150 mM) pH 6.5 buffer for an hour at room temperature before injecting into a reverse-phase HPLC system (ThermoScientific_Ultimate 3000) equipped with a C18 column (2/50 Nucleodur C18 gravity 1.8 μm von Macherey-Nagel).

hTEAD4 (nonacylated) [6] = molecular target: T4, hTEAD4 (nonacylated); experiment: Differential scanning fluorimetry; assay type: binding; conditions: 20 μM protein, 80 μM inhibitor; value is a decrease
Description: Nonacylated hTEAD4 (20 μM) was incubated in the absence or presence of inhibitors (80 μM) at 25 °C for 10 min. Then, SYPRO orange (Sigma-Aldrich) at a final concentration of 5× was added and the mixture was heated at a ramp rate of 1 °C/min in a qPCR machine (Applied Biosystems). The derivative of the SYPRO orange fluorescent intensity is plotted as a function of temperature.

hTEAD4 (acylated) = molecular target: T9, hTEAD4 (acylated) (Homo sapiens, UniProt Q15561); experiment: Whole-protein ESI–MS of covalent modification; assay type: binding; conditions: hTEAD4 not treated with hydroxylamine
T9 construct: N-terminal His6-tagged hTEAD4^217–434 was subcloned; made in house; host or cells: Escherichia coli BL21-CodonPlus (DE3)-RIPL
Description: (§4) The protein solution (1 μL 5 μM) was injected to UPLC-MS (ThermoScientific_UltiMate 3000 LC coupled to a Velos Pro MS) through a desalting column (MassPREP Online desalting, 2.1 × 10 mm). For reactions, 1 μM of the protein was incubated at room temperature for 1 h with 8 equiv of the compound in HEPES (25 mM) and NaCl (150 mM) pH 6.5 buffer. Then, the mixture was centrifuged before injecting 5 μL. The deconvolution of m/z values was performed using Promass Xcalibur software.

hTEAD4 (nonacylated) [7] = molecular target: T4, hTEAD4 (nonacylated); experiment: Whole-protein ESI–MS of covalent modification; assay type: binding; conditions: 8 equiv of compound, 1 h, rt
Description: as §4

hTEAD1–4 = experiment: Thiol conjugation assay, TEAD homologues (range over all four); assay type: binding, human
Description: as §3

T4 sequence (Q15561 217-434): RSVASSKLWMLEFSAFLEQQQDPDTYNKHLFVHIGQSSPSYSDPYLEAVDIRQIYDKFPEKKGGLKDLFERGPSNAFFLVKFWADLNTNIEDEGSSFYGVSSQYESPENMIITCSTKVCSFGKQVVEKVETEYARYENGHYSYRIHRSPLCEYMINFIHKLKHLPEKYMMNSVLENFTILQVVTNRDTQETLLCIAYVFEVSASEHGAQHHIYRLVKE
T8 sequence (Q62296 whole entry C360S): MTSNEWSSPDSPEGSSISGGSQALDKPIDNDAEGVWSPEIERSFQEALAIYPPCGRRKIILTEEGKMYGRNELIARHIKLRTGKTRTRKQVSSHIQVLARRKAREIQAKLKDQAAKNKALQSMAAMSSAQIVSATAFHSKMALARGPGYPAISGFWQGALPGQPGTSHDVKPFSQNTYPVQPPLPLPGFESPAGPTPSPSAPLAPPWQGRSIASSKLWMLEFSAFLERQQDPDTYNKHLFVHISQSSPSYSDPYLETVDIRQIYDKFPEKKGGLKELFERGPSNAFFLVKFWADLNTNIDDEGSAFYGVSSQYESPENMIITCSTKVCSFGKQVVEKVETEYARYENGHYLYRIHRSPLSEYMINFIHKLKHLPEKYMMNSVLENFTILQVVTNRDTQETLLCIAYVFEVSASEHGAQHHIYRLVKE
T9 sequence (Q15561 217-434): as the sequence (Q15561 217-434) above
T3 sequence (Q15561 217-434): as above
T6 sequence (Q99594 216-434): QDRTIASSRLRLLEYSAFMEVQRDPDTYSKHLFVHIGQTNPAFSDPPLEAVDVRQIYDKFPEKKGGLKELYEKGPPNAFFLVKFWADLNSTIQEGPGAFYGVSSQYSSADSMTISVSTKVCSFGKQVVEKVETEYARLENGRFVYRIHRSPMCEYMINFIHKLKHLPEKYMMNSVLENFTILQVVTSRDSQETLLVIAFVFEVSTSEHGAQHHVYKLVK
T2 sequence (Q62296 210-427 C360S limits assumed): as the sequence (Q15561 217-434) above, with V3I, Q19R, G35S, A48T, D67E, E91D, S96A, S142L, C151S counted along it
T1 sequence (Q62296 209-427 C360A): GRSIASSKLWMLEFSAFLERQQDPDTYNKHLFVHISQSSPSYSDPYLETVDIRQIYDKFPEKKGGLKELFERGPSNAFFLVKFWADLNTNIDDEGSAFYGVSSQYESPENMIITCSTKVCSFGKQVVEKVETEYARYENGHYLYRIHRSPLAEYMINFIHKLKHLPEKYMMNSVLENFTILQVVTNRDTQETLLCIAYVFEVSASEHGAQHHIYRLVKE
T7 sequence (Q62296 209-427 C360A): as above
T5 sequence (Q15562 217-447): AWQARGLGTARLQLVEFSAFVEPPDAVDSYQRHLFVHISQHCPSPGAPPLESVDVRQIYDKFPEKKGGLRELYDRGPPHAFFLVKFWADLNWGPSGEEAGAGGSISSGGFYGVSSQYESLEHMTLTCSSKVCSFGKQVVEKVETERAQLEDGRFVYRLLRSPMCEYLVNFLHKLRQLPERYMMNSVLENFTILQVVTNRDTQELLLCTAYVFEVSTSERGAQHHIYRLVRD

inhibition of the interaction of YAP with TEAD [1]: did not inhibit
inhibition of the interaction of YAP with TEAD [2]: did not inhibit
inhibition of the interaction of YAP with TEAD [3]: did not inhibit
kinact/KI (hTEAD4 (nonacylated) [4]; FP assay): 66.7 M⁻¹ s⁻¹
kinact (hTEAD4 (nonacylated) [4]; FP, read-out: kinact (converted)): 0.0015 s⁻¹
kinact (hTEAD4 (nonacylated) [4]; supplementary CSV, read-out: Kinact Fluorescence Polarization (converted)): 0.00015 s⁻¹
IC50 (hTEAD2): 6.9 µM
IC50 (hTEAD3): 4.6 µM
inhibition of the increase in fluorescence signal (Ala mutant of mTEAD4): cannot inhibit
inhibition of the increase in fluorescence signal (Ser mutant of mTEAD4): cannot inhibit
stability in assay medium ([5]; MES buffer, pH 6.5, 1 h, rt): stable
lowering of the melting point (Tm) (hTEAD4 (nonacylated) [6]): 5 °C
IC50 (hTEAD1–4): 2.6 to 6.9 µM
SMILES: O=c1cc(CO)oc(C(Nc2ccccc2)c2ccccc2)c1O (stereo not shown) [Compound 19, 3-Hydroxy-6-(hydroxymethyl)-2-(phenyl(phenylamino)methyl)-4H-pyran-4-one]
stability in assay medium ([5]; HEPES buffer (pH 6.5), 1 h): appearance of two small peaks was detected
adduct formation with acylated protein (whole-protein ESI–MS) (hTEAD4 (acylated)): did not result in the formation of an acylated hTEAD4-19 adduct
modification of the protein (whole-protein ESI–MS) (hTEAD4 (nonacylated) [7]): modification of the protein (+230 Da) was observed
